Two compounds from PMC8333425, “Discovery of a dual Ras and ARF6 inhibitor from a GPCR endocytosis screen” (Nature Communications, 2021) can be followed below.

For this test, the target named is T1, β-arrestin/AP-2 complex (Homo sapiens, UniProt P63010).
T1 construct: expressed in transfected cells; host or cells: HEK293SL
T1 sequence (P63010 1-937): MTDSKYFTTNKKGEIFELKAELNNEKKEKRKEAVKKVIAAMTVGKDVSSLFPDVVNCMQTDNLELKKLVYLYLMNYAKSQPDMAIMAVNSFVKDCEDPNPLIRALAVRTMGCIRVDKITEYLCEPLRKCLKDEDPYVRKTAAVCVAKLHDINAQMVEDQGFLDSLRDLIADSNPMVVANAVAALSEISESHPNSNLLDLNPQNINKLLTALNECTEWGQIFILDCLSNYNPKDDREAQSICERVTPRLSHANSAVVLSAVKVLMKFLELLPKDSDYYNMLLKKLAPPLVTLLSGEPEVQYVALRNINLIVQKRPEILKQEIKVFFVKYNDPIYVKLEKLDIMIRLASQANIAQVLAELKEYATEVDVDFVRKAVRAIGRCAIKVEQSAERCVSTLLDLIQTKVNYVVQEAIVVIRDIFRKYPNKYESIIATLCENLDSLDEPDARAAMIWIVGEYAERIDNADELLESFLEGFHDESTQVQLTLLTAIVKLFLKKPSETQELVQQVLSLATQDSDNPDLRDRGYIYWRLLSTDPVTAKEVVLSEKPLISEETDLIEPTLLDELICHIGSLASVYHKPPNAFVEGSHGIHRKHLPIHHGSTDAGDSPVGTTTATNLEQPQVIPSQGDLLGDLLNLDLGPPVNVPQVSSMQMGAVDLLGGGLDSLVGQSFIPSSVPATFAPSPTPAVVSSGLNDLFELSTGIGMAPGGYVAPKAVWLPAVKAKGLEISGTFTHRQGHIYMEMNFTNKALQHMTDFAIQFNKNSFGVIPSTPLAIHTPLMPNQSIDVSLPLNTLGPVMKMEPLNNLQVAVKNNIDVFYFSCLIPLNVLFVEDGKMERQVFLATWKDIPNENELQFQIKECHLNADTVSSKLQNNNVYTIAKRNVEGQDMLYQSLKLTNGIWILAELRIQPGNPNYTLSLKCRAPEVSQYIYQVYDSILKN
The test can be described thus: BRET sensor of β-arrestin2 binding to AP-2 (β2-Adaptin-YFP), AT1R-mediated. Conditions: for AngII-promoted BRET, binding of β-arrestin2 to AP-2: individual experiments. The test is classed as cell-based. As to the method:
HEK293 cells were transfected with a BRET sensor that monitors the interaction between β-arrestins and the β-appendage of AP-2 (Fig. 2a)[26],[33]. […] The small GTPase ARF6, which binds β-arrestins and facilitates AP-2 and clathrin recruitment at the PM, is also necessary for CCPs initiation and receptor internalization. Therefore, ARF6 activity was assessed using the protein-3 binding domain (PBD) of the golgi-associated, gamma adaptin ear-containing, ARF-binding protein 3 (GGA3) fused to GST (GST-GGA3-PBD) in a pull-down assay, which allows the detection of GTP-bound ARF6 in cells[34] (Fig. 2b). […] This inhibition was selective for ARF6 since 21 had no effect on AT1R-dependent ARF1 activation (Supplementary Fig. 2a). We also devised a BRET assay to quantitatively assess 21’s action on ARF activity. The ARF BRET assay was created using the GGA3-PBD fused to RlucII (GGA3-PBD-RlucII) and the rGFP anchored at the PM (rGFP-CAAX) (Supplementary Fig. 3a). […] 21 blocked ARF’s activation by 40–60% following AT1R stimulation (Fig. 2c).
HEK293SL cells were seeded at a density of 7.5 × 10^5 cells per 100-mm dish and 24 h later, transiently transfected as such. For receptor internalization experiments, cells were transfected with 0.12 μg AT1R-RlucII, B2R-RlucII, or β2AR-RlucII and 0.48 μg of either rGFP-CAAX (to assess removal from the PM) or rGFP-FYVE (to assess accumulation in the endosomes). For β-arrestin recruitment assays, cells were transfected with 0.48 μg of receptor-YFP along with 0.12 μg of β-arrestin-RlucII. For β-arrestin/AP-2 binding experiments, cells were transfected with 1 μg Flag-AT1R, 1 μg β2-Adaptin-YFP, and 0.12 μg β-arrestin2-RlucII. For G protein activation, cells were transfected with 3 μg of sp-Flag-AT1R along with either 4.5 μg of the Gαq-polycistronic BRET sensor or 0.24 μg of the Gαi3-RlucII and 0.6 μg of GFP10-Gγ2 and Gβ1 sensors or 0.12 μg PKN-RBD-RlucII and 0.48 μg of rGFP-CAAX. For PKC activation, cells were transfected with 3 μg of sp-Flag-AT1R and 0.18 μg of the PKC sensor. For GTPase activation experiments, cells were transfected with 1 μg Flag-AT1R, 0.48 μg of rGFP-CAAX, and either 0.12 μg of GGA3-PBD-RlucII, PAK-CRIB-RlucII or Raf-RBD-RlucII. For biosensor validation experiments, cells were additionally transfected with 500 ng Flag-K-Ras-WT, Flag-K-Ras-G12V, Flag-K-Ras-SOS-CAAX, HA-ARF6-WT, HA-ARF6-T27N, Myc-Rac1-WT, Myc-Rac1-Q61L or Myc-Rac1-T17N. For PI3K/Akt activation experiments, cells were transfected with 0.48 μg of rGFP-CAAX and 0.12 μg of Akt (PH)-RlucII. After 18 h of transfection, the media was replaced and cells were divided for subsequent experiments. Cells were detached and seeded onto poly-L-ornithine-coated 96-well flat white bottom plates (BrandTech Scientific) at a density of 2.5 × 10^4 cells per well in media. The next day, cells were washed once with Tyrode’s buffer (140 mM NaCl, 2.7 mM KCl, 1 mM CaCl2, 12 mM NaHCO3, 5.6 mM D-glucose, 0.5 mM MgCl2, 0.37 mM NaH2PO4, 25 mM HEPES, pH 7.4) and left in Tyrode’s buffer. For kinetics of β-arrestin recruitment or β-arrestin binding to receptor and AP-2 experiments, cells were serum starved for 30 min, pretreated with 21 (50 µM) or Barbadin (100 µM) for 30 min, stimulated with 100 nM AngII or 1 µM BK and BRET signals were monitored at indicated times using a Victor X Light plate reader (PerkinElmer). Coelenterazine H (final concentration of 5 µM) was added 3–5 min prior to BRET measurements. Filter set was 460/80 nm and 535/30 nm for detecting the RlucII Renilla luciferase (donor) and YFP (acceptor) light emissions, respectively. The BRET ratio was determined by calculating the ratio of the light emitted by YFP over the light emitted by the RlucII. For G protein activation, cells were serum starved, pretreated with compounds for 30 min, stimulated with 100 nM AngII for 2 min (Gαq, Gαi3, and Rho sensors) or 5 min (PKC sensor). […]
In general terms: In BRET a luciferase serves as donor, and the signal depends on an acceptor being close.

Where “and” joins values, the source holds several entries; their conditions need not be identical. Identical values can stand only once. A value given as a limit tells only on which side of the number the result lay.

In the case of `Nn1cnc2scc(-c3ccc(Cc4ccccc4)cc3)c2c1=O` [Barbadin, reference compound], the “AngII-promoted BRET, binding of β-arrestin2 to AP-2” value (shortened to “AngII-promoted BRET, binding”) runs as follows: (AngII + Barbadin (100 μM), time 0 min) 0; (AngII + Barbadin (100 μM), time 2 min) 0.00931 and 0.01844 and 0.00859; (AngII + Barbadin (100 μM), time 4 min) 0.01939 and 0.02951 and 0.01857; (AngII + Barbadin (100 μM), time 8 min) 0.01773 and 0.0324 and 0.02267; (AngII + Barbadin (100 μM), time 12 min) 0.01829 and 0.0336 and 0.02027; (AngII + Barbadin (100 μM), time 20 min) 0.02374 and 0.03345 and 0.02061. For the same compound, the “AngII-promoted BRET, binding” value (AngII + Barbadin (100 μM), time 24 min) is 0.01867 and 0.03563 and 0.02365. In addition, the “inhibition of the formation of the β-arrestin/AP-2 complex mediated by AT1R” value (Barbadin 100 µM) is listed as “more than 50%”.

As to `CC(C)C(=O)N1CCN(c2ccc(NC(=O)c3cc4ccccc4o3)cc2Cl)CC1` [Compound 21], under “21 at 50 µM, read-out: inhibition of the AngII-mediated β-arrestin/AP-2 complex formation”, the inhibition at 50 µM is ≤ 20%. Also, the “AngII-promoted BRET, binding” value was 0 (AngII + Comp 21 (50μM), time 0 min); 0.0291 and 0.02266 and 0.02708 (AngII + Comp 21 (50μM), time 2 min); 0.03981 and 0.03342 and 0.03976 (AngII + Comp 21 (50μM), time 4 min); 0.0471 and 0.04211 and 0.04647 (AngII + Comp 21 (50μM), time 8 min); 0.04695 and 0.03931 and 0.04772 (AngII + Comp 21 (50μM), time 12 min); 0.04571 and 0.04297 and 0.04991 (AngII + Comp 21 (50μM), time 20 min). In addition, the “AngII-promoted BRET, binding” value (AngII + Comp 21 (50μM), time 24 min) was 0.04875 and 0.04367 and 0.04987.
